According to patent US8642801B2 (BHI Limited Partnership, priority 2003, dated 2014):

System: Aβ40 and Aβ42 peptides in plasma and brain of TgCRND8 mice
Experiment: Long term treatment in adult transgenic CRND8 mice overexpressing βAPP: Aβ levels in plasma and brain by ELISA
Type: in vivo, Mouse
From the text: Transgenic mice, TgCRND8, as those used in the short term treatment, overexpress a human APP gene with the Swedish and Indiana mutations leading to the production of high levels of the amyloid peptides and to the development of an early-onset, aggressive development of brain amyloidosis. The high levels of Aβ peptides and the relative overabundance of Aβ42 compared to Aβ40 are believed to be associated with the severe and early degenerative pathology observed. The pattern of amyloid deposition, presence of dystrophic neuritis, and cognitive deficit has been well documented in this transgenic mouse line. The levels of Aβ peptides in the brain of these mice increase dramatically as the animals age. While the total amyloid peptide levels increase from ˜1.6×10^5 pg/g of brain to ˜3.8×10^6 between 9 and 17 weeks of age.
The long-term therapeutic effects of compounds of the present invention on cerebral amyloid deposition and β-amyloid (Aβ) levels in the plasma and in the brains of transgenic mice, TgCRND8, expressing the human amyloid precursor protein (hAPP) was studied. These compounds were administered over an 8 or 16 week period at the end of which the levels of Aβ peptides in the plasma and brain of TgCRND8 animals were determined. The goal of this study was to evaluate the efficacy of the compounds at modulating the progression of the amyloidogenic process in the brain and in the plasma of a transgenic mouse model of Alzheimer's disease (AD)
The mice used in the study consisted of animals bearing one copy of the hAPP gene (+/−) from the 2nd and 3rd generation progenies (N2 and N3) derived from backcrosses from TgCRND8.FVB(N2)AJ(N3) with B6AF1/J hybrid animals. N1=TgCRND8.FVB(N2)AJ(N3)×B6AF1/J N2=TgCRND8.FVB(N2)AJ(N3).B6AF1/J(N1)×B6AF1/J N3=TgCRND8.FVB(N2)AJ(N3).B6AF1/J(N2)×B6AF1/a
The following abbreviations are used to designate these animals in the present study: TgCRND8.B6AF1/J(N2); TgCRND8.B6AF1/J(N3). Male and female transgenic mice were given daily subcutaneous (compound BX) or oral (compounds BW and BZ) administrations of the appropriate compounds for 8 or 16 weeks.
Baseline animals consisted of 9±1 week old naive TgCRND8.B6AF1/J animals from the 2nd and 3rd generations. These mice were used to determine the extent of cerebral amyloid deposits and Aβ levels in the plasma and brain of naive transgenic animals at the initiation of treatment.
Starting at 9 weeks of age (±1 week) animals received daily administration of their respective treatment for a period of 8 or 16 weeks, at a dose of 30 or 100 mg/kg at 10 ml/kg. The route of administration was subcutaneous for water-soluble compounds (Compound BX) and oral for compounds solubilized in methylcellulose 1% (MC 1%) (Compounds BW and BZ). At the end of the treatment periods, plasma and perfused brains were collected for quantification of Aβ levels.
Animal health was monitored, samples were collected and Aβ levels were measured as described above in the short term treatment study. Compounds were scored based on their ability to modulate levels of Aβ peptides in the plasma and the cerebral soluble/insoluble levels in the brain. Levels of Aβ observed in the plasma and brain of treated animals were compared to that of vehicle-treated (water) or methylcellulose-treated control groups and ranked according to the strength of the pharmacological effect. Increases in the levels of Aβ peptides are indicated using “+” symbols, while decreases in the levels of Aβ peptides are indicated using “−” symbols. The strongest effects are recorded as “+++” or “−−−” while the weakest are shown as “+” or “−”.
Specifically, increases in the levels of Aβ (relative to vehicle treated control) of 5 to 14% are scored as “+”; increases of 15 to 29% are scored as “++”; and increases of 30% or higher are scored as “+++”. Decreases in the levels of Aβ of 5 to 14% are scored as “−”; decreases of 15 to 29% are scored as “−−”; and decreases of 30% or more are scored as “−−−”. […]

Row | Compound | brain and plasma levels of Aβ (at 8 weeks) | plasma levels of Aβ (at 16 weeks) | amount of Aβ in the brain (at both 8 and 16 weeks)
1 | O=S(=O)(O)CCCNC12CC3CC(CC(C3)C1)C2 [BW, 3-(1-adamantyl)amino-1-propanesulfonic acid] | dramatic decrease | dramatic decrease | 
2 | CC(C)(C)NCCCS(=O)(=O)O [BX, 3-(t-butyl)amino-1-propanesulfonic acid] |  |  | dramatic decrease
